Source: patent publication US7410979B2, “Synergistically effective combinations of dihaloacetamide compounds and interferon or ribavirin against HCV infections” (Rigel Pharmaceuticals, Inc., priority 2003, dated 2008)

Test system: HCV NS3
Test: Quantitative Western blot of HCV NS3 in replicon cells
Format: cell-based
Experimental: Certain exemplary synergistic combinations of the invention can also be tested for their ability to inhibit HCV replication using a quantitative Western blot analysis with antibodies specific for the HCV nonstructural protein NS3. Actively dividing 9-13 replicon cells can be seeded into 6-well plates at a density of 1×10^5 cells/well in a volume of 2 ml/well and can be incubated at 37° C. and 5% CO2 for 24 hours. Various concentrations of test compounds (in a volume of 10 ul) were can be added to the wells and the cells can be incubated for another 48 hours. Protein samples can be prepared from the cultured cells, then could be resolved on a SDS-PAGE gel and then could be transferred to a nitrocellulose membrane. The membrane can be blocked with 5% non-fat milk in PBS for 1 hour at room temperature. Primary antibody (anti NS3 antibody; Rigel Pharmaceuticals, South San Francisco, Calif.) incubation can be performed for 1 hour at room temperature, after which the membrane can be washed 3 times (for 15 min per time) with PBST (PBS plus 0.1% Tween 20). Horseradish peroxidase conjugated secondary antibody incubation can be performed for 1 hour at room temperature and the membrane can be washed 3 times (for 15 min per time) with PBST. The membrane can then be soaked in substrate solution (Pierce) and can then be exposed to a film or quantified using an imager. In this assay, the amount of test synergetic combination that yields a 50% reduction in the amount of NS3 protein translated as compared to a control sample (IC50) can be determined.

Compound	HCV NS3 protein level (FIG. 2, 100 nM of compound I and 20 μm ribavirin)	synergy between compound I and ribavirin (FIG. 2, ribavirin at constant concentration, concentration of compound I varied)	synergistic effects on HCV replication (FIG. 3, compound I, interferon-α and ribavirin)	HCV NS3 (FIGS. 3(c) and 3(d), increasing concentrations of compound I in combination with interferon-α and ribavirin)	effectiveness against HCV replication, as indicated by the reduction of HCV NS3 in replicon cells (FIG. 3(a), interferon-α alone at elevated concentrations)
O=C(Nc1ccnc(-c2cc(-c3c(Cl)cccc3Cl)no2)c1)C(Cl)Cl [compound I]	eliminated	synergy	synergistic effects	effectively eliminates	
interferon-α					effective
